Here are results for 10 compounds from patent US20260356856A1, “KRAS G12S AND G12C INHIBITORS” (MIRATI THERAPEUTICS, INC., priority 2023, published 2026).

Experiment [1] deals with T1, KRas-mediated phosphorylation of ERK in H358 cells (Homo sapiens, UniProt P01116, G12C).
T1 construct: pERK HTRF read-out
Kind of experiment: Inhibition of KRas-mediated phosphorylation of ERK (HTRF), H358 cells. It is filed as cell-based. The note with it: HTRF pERK, 3 h incubation. For orientation: TR-FRET usually uses a lanthanide donor and a delayed reading to cut background.

Experiment [2] addresses T2, KRas-mediated phosphorylation of ERK in A549 cells (Homo sapiens, UniProt P01116, G12S).
T2 construct: pERK HTRF read-out
Kind of experiment: Inhibition of KRas-mediated phosphorylation of ERK (HTRF), A549 cells. Type of experiment: cell-based. The note with it: HTRF pERK, 3 h incubation.

Experiment [3] has as its target T3, KRas-mediated phosphorylation of ERK in MKN1 cells (Homo sapiens, UniProt P01116).
T3 construct: pERK HTRF read-out
Description: Inhibition of KRas-mediated phosphorylation of ERK (HTRF), MKN1 cells. Type of experiment: cell-based. The note with it: MKN1 cells (KRas WT); HTRF pERK; 3 h incubation. The procedure: Inhibition of KRas Phosphorylation of ERK (HTRF) by Exemplary Compounds of Formula (Ia) or (Ib)
Cisbio HTRF Advanced pERK Assay Catalog #64AERPEH • Cells: MKN1, PSN1 • Procedure: • 1. Day 1: Seed 6,000 cells/well −25 μl/well in 384-well white solid bottom plate; RPM1_10% FBS. Incubate overnight at 37 °C/5% CO2. • 2.

The target of experiment [4] is T4, KRas G12C (Homo sapiens, UniProt P01116, G12C).
T4 construct: Biotinylated KRas (corresponding to amino acids 1-169, produced at Accelegan Inc.); biotin (biotinylated); purchased Accelegan Inc
T4 sequence (P01116 1-169 isoform P01116-2 G12C): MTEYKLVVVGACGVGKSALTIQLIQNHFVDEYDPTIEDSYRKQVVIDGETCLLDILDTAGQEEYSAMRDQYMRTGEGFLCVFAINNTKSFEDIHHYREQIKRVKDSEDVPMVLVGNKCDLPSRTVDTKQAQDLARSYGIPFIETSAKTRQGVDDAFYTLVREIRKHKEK
Description: KRas binding assay, TR-FRET displacement of Cy5 labelled tracer. The note with it: 60-minute incubation at room temperature, 1% DMSO, pH 7.5. Summed up:
(§1)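 Truncated KRas (1-169), biotinylated, Tb-streptavidin donor; one-hour room-temperature incubation; IC50 by four-parameter curve fitting.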

Experiment [5] addresses T5, KRas WT (Homo sapiens, UniProt P01116).
T5 construct: Biotinylated KRas (corresponding to amino acids 1-169, produced at Accelegan Inc.); biotin (biotinylated); purchased Accelegan Inc
Described as above. The note with it: 60-minute incubation at room temperature, 1% DMSO, pH 7.5. Summed up: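 TR-FRET tracer-displacement readout after 60 min at room temperature, using KRas residues 1-169 (biotinylated) with terbium streptavidin and a Cy5 tracer. Buffer: 50 mM HEPES pH 7.5, 5 mM MgCl2, 0.005% Tween-20, 1 mM DTT, 1% DMSO final. IC50 from 4-parameter fit of POC data.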

The target in experiment [6] is T6, KRas G12S (Homo sapiens, UniProt P01116, G12S).
T6 construct: Biotinylated KRas (corresponding to amino acids 1-169, produced at Accelegan Inc.); biotin (biotinylated); purchased Accelegan Inc
T6 sequence (P01116 1-169 isoform P01116-2 G12S): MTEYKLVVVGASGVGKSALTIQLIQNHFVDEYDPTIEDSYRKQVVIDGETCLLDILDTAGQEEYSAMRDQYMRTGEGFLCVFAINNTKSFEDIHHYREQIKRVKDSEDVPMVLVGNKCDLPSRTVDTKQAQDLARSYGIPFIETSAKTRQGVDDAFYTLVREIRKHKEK
The description is as above. The note with it: 60-minute incubation at room temperature, 1% DMSO, pH 7.5. Summed up: as §1

T1 sequence (P01116 1-188 isoform P01116-2 G12C): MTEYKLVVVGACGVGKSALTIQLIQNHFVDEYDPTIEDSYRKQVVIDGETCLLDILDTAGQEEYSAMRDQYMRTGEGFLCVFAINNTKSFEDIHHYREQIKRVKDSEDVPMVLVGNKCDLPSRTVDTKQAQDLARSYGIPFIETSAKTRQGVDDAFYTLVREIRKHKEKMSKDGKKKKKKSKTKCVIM
T3 sequence (P01116 1-188 isoform P01116-2): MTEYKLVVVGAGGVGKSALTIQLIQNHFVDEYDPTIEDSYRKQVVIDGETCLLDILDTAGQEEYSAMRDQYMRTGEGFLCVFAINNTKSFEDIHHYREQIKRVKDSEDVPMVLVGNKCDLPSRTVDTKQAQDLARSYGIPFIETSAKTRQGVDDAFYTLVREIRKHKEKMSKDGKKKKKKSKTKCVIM
T5 sequence (P01116 1-169 isoform P01116-2): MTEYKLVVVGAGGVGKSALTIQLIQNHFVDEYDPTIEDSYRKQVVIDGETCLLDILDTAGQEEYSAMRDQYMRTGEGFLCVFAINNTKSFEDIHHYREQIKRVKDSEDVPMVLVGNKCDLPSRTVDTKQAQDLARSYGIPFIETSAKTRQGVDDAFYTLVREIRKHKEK
T2 sequence (P01116 1-188 isoform P01116-2 G12S): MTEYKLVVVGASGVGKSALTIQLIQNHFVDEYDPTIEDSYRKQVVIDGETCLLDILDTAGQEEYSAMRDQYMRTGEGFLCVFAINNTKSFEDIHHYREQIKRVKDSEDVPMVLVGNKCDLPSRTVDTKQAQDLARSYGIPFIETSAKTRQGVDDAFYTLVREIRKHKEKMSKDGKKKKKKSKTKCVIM

By IC50 is commonly meant the concentration at which inhibition is half-maximal. Read a high IC50 as a need for much substance. For `CCc1c(F)ccc2cc(O)cc(-c3ncc4c(N5CC6CCC(C5)C6C(=O)n5cccn5)nc(OC[C@@]56CCCN5C[C@H](F)C6)nc4c3F)c12` (stereo partly drawn) [Example 59, ((1R,5S,8S)-3-(7-(8-ethyl-7-fluoro-3-hydroxynaphthalen-1-yl)-8-fluoro-2-(((2R,7aS)-2-fluorotetrahydro-1H-pyrrolizin-7a(5H)-yl)methoxy)pyrido[4,3-d]pyrimidin-4-yl)-3-azabicyclo[3.2.1]octan-8-yl)(1H-pyrazol-1-yl)methanone], the concentration for half-maximal inhibition (IC50) in experiment [1] is 486 nM; in experiment [2], 372 nM; in experiment [3], 27 nM; in experiment [4], 8 nM; in experiment [5] it was less than 2 nM; in experiment [6], less than 2 nM.

For `CCc1c(F)ccc2cc(O)cc(-c3ncc4c(N5CCC(C(=O)n6ccc(OC)n6)CC5)nc(OC[C@@]56CCCN5C[C@H](F)C6)nc4c3F)c12` [Example 61, (1-(7-(8-ethyl-7-fluoro-3-hydroxynaphthalen-1-yl)-8-fluoro-2-(((2R,7aS)-2-fluorotetrahydro-1H-pyrrolizin-7a(5H)-yl)methoxy)pyrido[4,3-d]pyrimidin-4-yl)piperidin-4-yl)(3-methoxy-1H-pyrazol-1-yl)methanone], the IC50 in experiment [1] came to 8570 nM; in experiment [2], 84 nM; in experiment [3] it was 2610 nM; in experiment [4] it was 336 nM; in experiment [5], 136 nM; in experiment [6], 34 nM.

In the case of `CCc1c(F)ccc2cc(O)cc(-c3ncc4c(N5CCCC(C(=O)n6ccc(C)n6)CC5)nc(OC[C@@]56CCCN5C[C@H](F)C6)nc4c3F)c12` (stereo partly drawn) [Example 63, (1-(7-(8-ethyl-7-fluoro-3-hydroxynaphthalen-1-yl)-8-fluoro-2-(((2R,7aS)-2-fluorotetrahydro-1H-pyrrolizin-7a(5H)-yl)methoxy)pyrido[4,3-d]pyrimidin-4-yl)azepan-4-yl)(3-methyl-1H-pyrazol-1-yl)methanone], the IC50 in experiment [1] amounted to 3250 nM; in experiment [2], 40 nM; in experiment [3], 1460 nM; in experiment [4], 96 nM; in experiment [5], 145 nM; in experiment [6] it was 20 nM.

Consider `CCc1c(F)ccc2cc(O)cc(-c3ncc4c(N5CCC(C(=O)n6cc(N(C)C)cn6)CC5)nc(OC[C@@]56CCCN5C[C@H](F)C6)nc4c3F)c12` [Example 64, (4-(dimethylamino)-1H-pyrazol-1-yl)(1-(7-(8-ethyl-7-fluoro-3-hydroxynaphthalen-1-yl)-8-fluoro-2-(((2R,7aS)-2-fluorotetrahydro-1H-pyrrolizin-7a(5H)-yl)methoxy)pyrido[4,3-d]pyrimidin-4-yl)piperidin-4-yl)methanone], for which the half-inhibitory concentration (IC50) came to 4600 nM in experiment [1]; 119 nM in experiment [2]; 4500 nM in experiment [3]; 13 nM in experiment [4]; 32 nM in experiment [5]; 40 nM in experiment [6].

Consider `CCc1c(F)ccc2cc(O)cc(-c3ncc4c(N5CCCC(C(=O)n6ccc(C)n6)C5)nc(OC[C@@]56CCCN5C[C@H](F)C6)nc4c3F)c12` (stereo partly drawn) [Example 65, (1-(7-(8-ethyl-7-fluoro-3-hydroxynaphthalen-1-yl)-8-fluoro-2-(((2R,7aS)-2-fluorotetrahydro-1H-pyrrolizin-7a(5H)-yl)methoxy)pyrido[4,3-d]pyrimidin-4-yl)piperidin-3-yl)(3-methyl-1H-pyrazol-1-yl)methanone], for which the IC50 is 415 nM in experiment [1]; more than 10000 nM in experiment [2]; 266 nM in experiment [3]; 28 nM in experiment [4]; 17 nM in experiment [5]; 14 nM in experiment [6].

In the case of `C=Cc1ccn(C(=O)C2CCN(c3nc(OC[C@@]45CCCN4C[C@H](F)C5)nc4c(F)c(-c5cc(O)cc6ccc(F)c(CC)c56)ncc34)CC2)n1` [Example 66, (1-(7-(8-ethyl-7-fluoro-3-hydroxynaphthalen-1-yl)-8-fluoro-2-(((2R,7aS)-2-fluorotetrahydro-1H-pyrrolizin-7a(5H)-yl)methoxy)pyrido[4,3-d]pyrimidin-4-yl)piperidin-4-yl)(3-vinyl-1H-pyrazol-1-yl)methanone], the IC50 came out at 9020 nM in experiment [1]; 141 nM in experiment [2]; 5200 nM in experiment [3]; 57 nM in experiment [4]; 154 nM in experiment [5]; 26 nM in experiment [6].

Turning to `C#Cc1c(F)ccc2cc(O)cc(-c3ncc4c(N5CCC(C(=O)n6ccc(C)n6)CC5)nc(OC[C@@]56CCCN5C[C@H](F)C6)nc4c3F)c12` [Example 67, (1-(7-(8-ethynyl-7-fluoro-3-hydroxynaphthalen-1-yl)-8-fluoro-2-(((2R,7aS)-2-fluorotetrahydro-1H-pyrrolizin-7a(5H)-yl)methoxy)pyrido[4,3-d]pyrimidin-4-yl)piperidin-4-yl)(3-methyl-1H-pyrazol-1-yl)methanone], the IC50 turned out to be 3080 nM in experiment [1]; 113 nM in experiment [2]; 3290 nM in experiment [3]; 51 nM in experiment [4]; 15 nM in experiment [5]; 17 nM in experiment [6].

Regarding `CCc1c(F)ccc2cc(O)cc(-c3ncc4c(N5CCCCC(C(=O)n6ccc(C)n6)C5)nc(OC[C@@]56CCCN5C[C@H](F)C6)nc4c3F)c12` (stereo partly drawn) [Example 68, (1-(7-(8-ethyl-7-fluoro-3-hydroxynaphthalen-1-yl)-8-fluoro-2-(((2R,7aS)-2-fluorotetrahydro-1H-pyrrolizin-7a(5H)-yl)methoxy)pyrido[4,3-d]pyrimidin-4-yl)azepan-3-yl)(3-methyl-1H-pyrazol-1-yl)methanone], the IC50 is 34 nM in experiment [1]; 77 nM in experiment [2]; 12 nM in experiment [3]; 5 nM in experiment [4]; 10 nM in experiment [5]; 6 nM in experiment [6].

For the compound `CCc1c(F)ccc2cc(O)cc(-c3ncc4c(N5CCCN(C(=O)n6ccc(C)n6)CC5)nc(OC[C@@]56CCCN5C[C@H](F)C6)nc4c3F)c12` [Example 69, (4-(7-(8-ethyl-7-fluoro-3-hydroxynaphthalen-1-yl)-8-fluoro-2-(((2R,7aS)-2-fluorotetrahydro-1H-pyrrolizin-7a(5H)-yl)methoxy)pyrido[4,3-d]pyrimidin-4-yl)-1,4-diazepan-1-yl)(3-methyl-1H-pyrazol-1-yl)methanone], the IC50 in experiment [1] was determined as 1120 nM; in experiment [2], 4810 nM; in experiment [3] it was 31 nM; in experiment [4] it was 79 nM; in experiment [5], 6 nM; in experiment [6], 124 nM.

Consider `CCc1c(F)ccc2cc(O)cc(-c3ncc4c(N5CCC(C(=O)n6ccc(C)n6)CC5)nc(OC[C@@]56CCCN5C/C(=C\F)C6)nc4c3F)c12` [Example 70, (S,Z)-(1-(7-(8-ethyl-7-fluoro-3-hydroxynaphthalen-1-yl)-8-fluoro-2-((2-(fluoromethylene)tetrahydro-1H-pyrrolizin-7a(5H)-yl)methoxy)pyrido[4,3-d]pyrimidin-4-yl)piperidin-4-yl)(3-methyl-1H-pyrazol-1-yl)methanone], for which the half-maximal inhibitory concentration (IC50) in experiment [1] turned out to be 7290 nM; in experiment [2], 85 nM; in experiment [3], 5100 nM; in experiment [4] it was 31 nM; in experiment [5], 27 nM; in experiment [6], 17 nM.
